Reference: patent US11674182B2, “Biomarker for HER2-positive cancer and anti-HER2 therapy and applications thereof” (INDUSTRY-UNIVERSITY COOPERATION FOUNDATION HANYANG …, priority 2017, dated 2023)

Experiments:
ADAM10 = molecular target: T1, ADAM10 (Homo sapiens, UniProt O14672); settings: cited from earlier work
T1 sequence (O14672 214-748): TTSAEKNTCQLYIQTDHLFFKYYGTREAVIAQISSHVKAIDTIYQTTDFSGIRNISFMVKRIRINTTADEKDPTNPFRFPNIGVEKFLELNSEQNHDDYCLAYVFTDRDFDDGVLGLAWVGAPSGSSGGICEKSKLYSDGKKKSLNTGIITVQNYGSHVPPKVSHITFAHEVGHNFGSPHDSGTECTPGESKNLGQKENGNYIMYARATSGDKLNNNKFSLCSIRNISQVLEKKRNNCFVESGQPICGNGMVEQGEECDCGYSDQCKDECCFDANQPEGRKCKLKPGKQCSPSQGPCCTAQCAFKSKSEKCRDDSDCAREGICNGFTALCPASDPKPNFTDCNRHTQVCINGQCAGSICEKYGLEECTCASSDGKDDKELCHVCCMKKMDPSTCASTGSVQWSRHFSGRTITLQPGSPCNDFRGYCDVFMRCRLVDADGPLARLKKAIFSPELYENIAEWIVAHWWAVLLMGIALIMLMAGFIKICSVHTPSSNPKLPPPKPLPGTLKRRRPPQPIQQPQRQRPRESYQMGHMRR

BT474 cells = test: Cell viability test (SRB) and colony formation assay in BT474 cells; type: cell-based, human; settings: MEL-18-depleted BT474 cells; 1 μM GW280264 with trastuzumab, 5 days
Method: An in vitro toxicity test analysis kit (Sulforhodamine B based, TOX6) was purchased from Sigma-Aldrich (St. Louis, Mo., USA), and used according to the manufacturer's protocols. […] After five days, the cells were fixed by layering a TCA solution in the medium, and incubated at 4° C. for 1 hour. The fixed cells were washed with water several times, and stained with a 0.4% sulforhodamine B solution for 30 minutes. Subsequently, the stained cells were washed with a 1% acetic acid solution until remaining salts were no longer observed, and the incorporated dye was dissolved in a 10 mM Tris solution while gently stirring. The prepared plate was detected using a microplate reader at 490 nm.
After 2 weeks, the cells were fixed with a 4% formaldehyde solution for 5 minutes, washed with PBS, and stained with 0.02% crystal violet (C0775, Sigma-Aldrich) for 1 to 2 hours at room temperature and then washed again. The prepared plates were dried thoroughly, and the experiment was carried out.

ErbB-PI3K-AKT signaling = test: Immunoblotting / ELISA of ErbB signaling and ErbB ligand secretion in BT474 cells; type: cell-based, human; settings: MEL-18-knockdown BT474 cells; 1 μM GW280264, 24 hours
Method: Cells were lysed in RIPA buffer, and the lysates were subjected to immunoblotting and immunoprecipitation as described in [M. H. Cho et al, Nat Commun 6, 7821(2015)] (60). For immunoblotting, the cell lysates were separated by 6% to 15% SDS-polyacrylamide gel electrophoresis (PAGE) and transferred to nitrocellulose membranes. After blocking the membranes with 5% skin milk, the membranes were incubated with primary antibodies overnight at 4° C., and then reacted with horseradish peroxidase (HRP)-conjugated secondary antibodies for 1 hour at room temperature. Bands were visualized using an ECL detection system (GE Healthcare, Chalfont St. Giles, UK).
The levels of the HER ligands HB-EGF and heregulinl (heregulinl, NRG1-beta1, NRG1) were measured in cell culture supernatants using ELISA (BosterBio and R&D Systems) according to the manufacturer's protocols.
In the case of the R&D Systems kit, an ELISA plate was coated overnight with captured antibodies and blocked with 3% BSA for 1 hour. […]
In the case of the BosterBio ELISA kit, the antibody-coated plate was directly filled with samples and standards, and incubated for 90 minutes. […] After this step, the plates for both kits were filled with a substrate solution for 20 minutes, the reaction was stopped using a stop solution for 20 minutes, and the absorbance was measured using a microplate reader at a wavelength of 450 nm. […]

ADAM10 and ADAM17 = settings: HER2+ metastatic breast cancer patients expressing p95-HER2; trial reported to have failed; cited from earlier work

CNC(=O)[C@@H](NC(=O)[C@H](CCCc1ccccc1)[C@H](C)N(O)C=O)C(C)(C)C [GI254023, (2R)—N-[(1S)-2,2-dimethyl-1-[(methylamino)carbonyl]-propyl]-2-[(1S)-1-[formyl(hydroxy)amino]ethyl]-5-phenylpentanamide]
selectivity to ADAM10 with respect to ADAM17 (ADAM10): about 100 fold

CCC[C@@H]([C@@H](CC(C)C)C(=O)N[C@@H](CCCCNC(=O)OCc1ccccc1)C(=O)Nc1nccs1)N(O)C=O [GW280264, benzyl N-[(5S)-5-[[(2R,3S)-3-(Formylhydroxyamino)-2-(2-methylpropyl)-1-oxohexyl]amino]-6-oxo-6-(2-thiazolylamino)hexyl]-carbamate]
anti-proliferative effect of trastuzumab on co-treatment with GW280264 (BT474 cells): resistance to trastuzumab is improved
activation of ErbB-PI3K-AKT signaling and secretion of ErbB ligands (ErbB-PI3K-AKT signaling): reversing the activation of ErbB-PI3K-AKT signaling

COC(=O)N1CC2(CC2)C[C@H](C(=O)NO)[C@H]1C(=O)N1CCN(c2ccccc2)CC1 [INCB7839, (6S,7S)-7-[(hydroxyamino)carbonyl]-6-[(4-phenyl-1-piperazinyl)carbonyl]-5-azaspiro[2.5]octane-5-carboxylic acid methyl ester]
clinical therapeutic effect in combination with Herceptin (ADAM10 and ADAM17): improves a clinical therapeutic effect of Herceptin
